From PMC12621189, “Optimization of Selective and CNS Penetrant Alkyne-Based TREK Inhibitors: The Discovery and Characterization of ONO-9517601 (VU6022856) and ONO-7927846 (VU6024391)” (Journal of Medicinal Chemistry, 2025)

What was measured:
dopamine transporter DAT = target: T1, dopamine transporter DAT (Homo sapiens, UniProt Q01959); test: Radioligand binding, dopamine transporter
T1 construct: purchased Eurofins

DAT = DAT (Homo sapiens, UniProt Q01959); test: Functional assay, DAT; type: biochemical
TASK-3 = TASK-3 (Homo sapiens, UniProt Q9NPC2); test: K2P family selectivity, TASK-3; type: cell-based
TASK-2 = TASK-2 (Homo sapiens, UniProt O95279); test: K2P family selectivity, TASK-2; type: cell-based
THIK-1 = THIK-1 (Homo sapiens, UniProt Q9HB14); test: K2P family selectivity, THIK-1; type: cell-based
TRESK = TRESK (Homo sapiens, UniProt Q7Z418); test: K2P family selectivity, TRESK; type: cell-based
sodium channel site 2 = test: Radioligand binding, sodium channel site 2
[1] = radioligand binding displacement, 10 μM

T1 sequence (Q01959 whole entry): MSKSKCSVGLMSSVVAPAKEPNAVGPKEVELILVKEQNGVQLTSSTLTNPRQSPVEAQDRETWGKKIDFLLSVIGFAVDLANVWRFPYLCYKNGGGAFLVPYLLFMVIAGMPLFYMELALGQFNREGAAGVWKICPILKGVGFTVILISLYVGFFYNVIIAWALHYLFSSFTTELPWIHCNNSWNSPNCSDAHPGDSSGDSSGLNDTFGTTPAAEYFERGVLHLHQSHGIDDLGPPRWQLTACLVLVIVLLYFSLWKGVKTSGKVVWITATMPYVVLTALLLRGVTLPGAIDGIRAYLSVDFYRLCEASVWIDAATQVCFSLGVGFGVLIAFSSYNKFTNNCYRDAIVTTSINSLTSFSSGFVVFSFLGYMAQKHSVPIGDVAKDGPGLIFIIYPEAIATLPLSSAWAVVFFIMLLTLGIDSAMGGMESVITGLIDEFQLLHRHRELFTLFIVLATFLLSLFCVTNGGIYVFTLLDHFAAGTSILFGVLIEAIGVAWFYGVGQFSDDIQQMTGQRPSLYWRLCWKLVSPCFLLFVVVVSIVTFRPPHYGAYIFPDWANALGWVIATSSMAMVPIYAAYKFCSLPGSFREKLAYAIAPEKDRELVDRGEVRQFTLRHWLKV
Sequence of TASK-2 (O95279 whole entry, species assumed): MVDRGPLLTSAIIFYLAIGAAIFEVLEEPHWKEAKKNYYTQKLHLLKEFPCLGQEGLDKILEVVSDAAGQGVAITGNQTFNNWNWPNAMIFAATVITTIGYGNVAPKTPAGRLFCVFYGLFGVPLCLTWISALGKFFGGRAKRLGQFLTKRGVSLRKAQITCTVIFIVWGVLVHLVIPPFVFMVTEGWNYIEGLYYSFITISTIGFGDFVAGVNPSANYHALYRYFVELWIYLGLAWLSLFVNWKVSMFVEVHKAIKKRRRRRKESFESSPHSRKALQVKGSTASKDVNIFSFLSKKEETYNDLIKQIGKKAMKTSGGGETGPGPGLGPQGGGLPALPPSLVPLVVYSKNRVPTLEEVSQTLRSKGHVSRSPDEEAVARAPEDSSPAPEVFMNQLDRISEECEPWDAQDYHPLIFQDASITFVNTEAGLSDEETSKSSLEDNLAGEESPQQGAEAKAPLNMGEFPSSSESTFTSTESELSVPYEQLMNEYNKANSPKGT
Sequence of TASK-3 (Q9NPC2 whole entry, species assumed): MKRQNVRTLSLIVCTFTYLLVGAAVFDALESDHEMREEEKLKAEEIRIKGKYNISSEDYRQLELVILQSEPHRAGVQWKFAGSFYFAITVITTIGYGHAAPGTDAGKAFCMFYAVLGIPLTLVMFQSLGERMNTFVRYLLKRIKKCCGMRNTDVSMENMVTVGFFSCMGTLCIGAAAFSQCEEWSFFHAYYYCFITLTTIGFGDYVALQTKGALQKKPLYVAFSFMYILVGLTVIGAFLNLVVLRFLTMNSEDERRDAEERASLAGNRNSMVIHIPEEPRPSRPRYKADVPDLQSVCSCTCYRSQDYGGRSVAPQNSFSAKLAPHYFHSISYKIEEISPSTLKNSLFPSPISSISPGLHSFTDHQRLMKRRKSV
Sequence of THIK-1 (Q9HB14 whole entry, species assumed): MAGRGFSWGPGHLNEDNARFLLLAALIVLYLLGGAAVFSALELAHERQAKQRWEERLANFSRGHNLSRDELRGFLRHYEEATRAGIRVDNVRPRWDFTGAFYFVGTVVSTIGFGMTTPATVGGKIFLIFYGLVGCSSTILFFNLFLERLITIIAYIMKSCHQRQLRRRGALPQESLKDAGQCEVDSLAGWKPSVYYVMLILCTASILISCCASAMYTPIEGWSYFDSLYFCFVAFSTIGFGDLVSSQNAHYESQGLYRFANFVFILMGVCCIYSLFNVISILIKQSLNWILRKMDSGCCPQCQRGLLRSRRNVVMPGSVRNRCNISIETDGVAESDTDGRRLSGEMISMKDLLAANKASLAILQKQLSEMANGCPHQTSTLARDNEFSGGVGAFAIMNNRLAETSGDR
Sequence of TRESK (Q7Z418 whole entry, species assumed): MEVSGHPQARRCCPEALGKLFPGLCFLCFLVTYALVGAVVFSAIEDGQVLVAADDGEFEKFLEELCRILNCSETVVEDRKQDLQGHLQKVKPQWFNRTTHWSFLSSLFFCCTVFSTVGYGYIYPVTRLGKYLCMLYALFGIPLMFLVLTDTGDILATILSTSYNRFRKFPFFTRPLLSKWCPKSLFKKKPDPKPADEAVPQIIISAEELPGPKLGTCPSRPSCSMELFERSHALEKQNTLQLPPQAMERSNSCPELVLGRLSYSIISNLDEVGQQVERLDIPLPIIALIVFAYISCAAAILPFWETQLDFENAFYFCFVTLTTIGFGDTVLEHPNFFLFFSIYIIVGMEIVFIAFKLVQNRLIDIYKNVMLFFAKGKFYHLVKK
Sequence of DAT (Q01959 whole entry, species assumed): as the sequence (Q01959 whole entry) above

Row | Structure (SMILES) | IC50 (dopamine transporter DAT; follow-up binding) [nM] | inhibition at 10 µM (dopamine transporter DAT; [1]) [%] | IC50 (DAT) [nM] | inhibition at 10 µM (TASK-3) [%] | TASK-2 inhibition (TASK-2) | THIK-1 inhibition (THIK-1) | TRESK inhibition (TRESK) | IC50 (sodium channel site 2; follow-up binding) [nM] | sodium channel site 2 inhibition at 10 μM (sodium channel site 2; [1]) [%]
1 | CC(=O)N1CCC(n2ncc(Cl)c2C(=O)Nc2ncc(C#Cc3ccccc3)cc2C)CC1 [Compound 10, 1-(1-Acetylpiperidin-4-yl)-4-chloro-N-(3-methyl-5-(phenylethynyl)pyridin-2-yl)-1H-pyrazole-5-carboxamide] | 2860 | 78 | 1210 | 78 | nothing significant | nothing significant | nothing significant | – | –
2 | CC(=O)N1CC[C@@H](n2ncc(Cl)c2C(=O)Nc2ncc(C#Cc3ccc(F)cc3)cc2C)[C@H](F)C1 [Compound 11, 1-((3R,4R)-1-Acetyl-3-fluoropiperidin-4-yl)-4-chloro-N-(5-((4-fluorophenyl)ethynyl)-3-methylpyridin-2-yl)-1H-pyrazole-5-carboxamide] | – | – | – | – | – | – | – | 9130 | 56
